Key:
Vero [1] = assay: (§1) Cytotoxicity against Vero cells was determined.; assay type: cell-based; conditions: Chlorocebus sabaeus
[2] = Anti-HIV activity against human peripheral blood mononuclear (PBM) cell lines infected with M184V Pitt (FTC resistant isolate); assay type: functional
[3] = (§2) Toxicity against human peripheral blood mononuclear (PBM) cells
[4] = test system: Human immunodeficiency virus 1; assay: Anti-HIV activity was determined; assay type: functional, organism-based
[5] = Anti-HIV activity against human peripheral blood mononuclear (PBM) cell lines infected with XxBRU Pitt (FTC sensitive isolate); assay type: functional
CCRF-CEM [6] = assay: Cytotoxicity against CEM cells; assay type: cell-based, Homo sapiens
[7] = Half life was determined.; assay type: ADME
Vero [8] = assay: as §1; assay type: functional, cell-based; conditions: Chlorocebus sabaeus
[9] = Half life at pH 2.0; assay type: ADME; conditions: buffer
CCRF-CEM [10] = assay: Cytotoxicity against CEM cells was determined.; assay type: functional, cell-based; conditions: Homo sapiens
[11] = as §2; assay type: functional
[12] = human, peripheral blood mononuclear (PBM) cells, IC50

In the case of `OC[C@@H]1C=C(F)[C@H](n2cnc3c(O)ncnc32)O1`, the IC50 (Vero [1]) is reported as 87.7 µM, the EC50 [2] is reported as 2500 nM and the IC50 [3, 12] is reported as 92.7 µM. It also gave an EC50 ([4]; Human immunodeficiency virus 1) of 1 µM, an EC50 [5] of 2800 nM and an IC50 (CCRF-CEM [6]; Homo sapiens, CCRF-CEM) greater than 100 µM.
For `Cc1cn([C@@H]2O[C@H](CO)C=C2F)c(=O)nc1N`, the IC50 (Vero [1]) was greater than 100 µM, the IC50 [3, 12] was greater than 100 µM and the EC50 ([4]; Human immunodeficiency virus 1) was greater than 100 µM. For the same compound, the IC50 (CCRF-CEM [6]; Homo sapiens, CCRF-CEM) was greater than 100 µM.
For `OC[C@@H]1C=C(F)[C@@H](n2cnc3c(O)ncnc32)O1`, the IC50 (Vero [1]) was greater than 100 µM, the IC50 [3, 12] was greater than 100 µM and the EC50 ([4]; Human immunodeficiency virus 1) was greater than 100 µM. The IC50 (CCRF-CEM [6]; Homo sapiens, CCRF-CEM) was greater than 100 µM.
Compound `Nc1nc(=O)n([C@@H]2O[C@H](CO)C=C2F)cc1F` (stereo in doubt; 30) has an IC50 (Vero [1]) greater than 100 µM, an EC50 [2] of 9610 nM and an IC50 [3, 12] greater than 100 µM. The EC50 [4] was 0.82 µM, the EC50 [5] was 3100 nM and the IC50 (CCRF-CEM [6]; Homo sapiens, CCRF-CEM) was greater than 100 µM.
With `Nc1ncnc2c1ncn2[C@@H]1O[C@H](CO)C=C1F` (stereo in doubt; 15) the IC50 (Vero [1]) was greater than 100 µM, the IC50 [3, 12] was greater than 100 µM and the EC50 [4] was greater than 100 µM. For the same compound, the IC50 (CCRF-CEM [6]; Homo sapiens, CCRF-CEM) was greater than 100 µM.
Compound `Nc1nc(O)c2ncn([C@@H]3O[C@H](CO)C=C3F)c2n1` (stereo in doubt; 18) has an EC50 [2] of 11200 nM.
For `Nc1ncnc2c1ncn2[C@@H]1O[C@H](CO)[C@@H](O)[C@H]1O` [ADENOSINE], the half-life [7] was 0.417 min.
Compound `Nc1nc(Cl)c2ncn([C@@H]3O[C@H](CO)C=C3F)c2n1` (stereo in doubt; 13) has an IC50 (Vero [1]) greater than 100 µM, an IC50 [3, 12] of 77.4 µM and an EC50 [4] greater than 75 µM. It also gave an IC50 (CCRF-CEM [6]; ccrf-cem) of 30.2 µM.
Compound `Nc1ncnc2c1ncn2[C@@H]1O[C@H](CO)C=C1F` (stereo in doubt; 14) has an EC50 [2] of 800 nM, an IC50 (Vero [8]) greater than 100 µM and a half-life [9] of 3 days. It also gave a half-life [7] of 41.6 min, an EC50 [4] of 0.44 µM and an IC50 (CCRF-CEM [10]) of 57.6 µM. The IC50 [11] was 68.3 µM and the EC50 [5] was 460 nM.
Work on `Nc1ccn([C@@H]2O[C@H](CO)C=C2F)c(=O)n1` (stereo in doubt; 29) yielded an IC50 (Vero [1]) greater than 100 µM, an IC50 [3] greater than 100 µM and an EC50 [4] greater than 100 µM. For the same compound, the IC50 (CCRF-CEM [6]; ccrf-cem) was greater than 100 µM.
Compound `Nc1nc(N)c2ncn([C@@H]3O[C@@H](CO)C=C3F)c2n1` has an IC50 (Vero [1]) greater than 100 µM, an IC50 [3, 12] greater than 100 µM and an EC50 ([4]; Human immunodeficiency virus 1) greater than 100 µM. For the same compound, the IC50 (CCRF-CEM [6]; Homo sapiens, CCRF-CEM) was greater than 100 µM.
`Nc1nc(Cl)c2ncn([C@@H]3O[C@H](CO)C=C3F)c2n1` (stereo in doubt; 11) showed an IC50 [3] of 98.8 µM, an EC50 [4] of 4.3 µM and an IC50 (CCRF-CEM [6]; ccrf-cem) greater than 100 µM.
In the case of `Cc1cn([C@H]2C[C@H](N=[N+]=[N-])[C@@H](CO)O2)c(=O)[nH]c1=O` [ZIDOVUDINE], the EC50 [2] is reported as 4 nM, the IC50 [3, 12] is reported as greater than 100 µM and the EC50 [5] is reported as 5 nM.
`Nc1nc(F)nc2c1ncn2[C@@H]1O[C@H](CO)C=C1F` gave an IC50 (Vero [1]) greater than 100 µM, an IC50 [3, 12] greater than 100 µM and an EC50 ([4]; Human immunodeficiency virus 1) greater than 100 µM. The IC50 (CCRF-CEM [6]; Homo sapiens, CCRF-CEM) was greater than 100 µM.
Compound `Nc1ccn([C@@H]2O[C@H](CO)C=C2F)c(=O)n1` (stereo in doubt; 28) has an IC50 [3] of 7.3 µM, an EC50 [4] of 2.6 µM and an IC50 (CCRF-CEM [6]; ccrf-cem) of 35.3 µM.
`Nc1nc(F)nc2c1ncn2[C@H]1O[C@H](CO)C=C1F` gave an IC50 (Vero [1]) of 16.1 µM, an IC50 [3, 12] of 41.2 µM and an EC50 ([4]; Human immunodeficiency virus 1) of 3.97 µM. For the same compound, the IC50 (CCRF-CEM [6]; Homo sapiens, CCRF-CEM) was 28.3 µM.
Compound `Nc1nc(N)c2ncn([C@@H]3O[C@H](CO)C=C3F)c2n1` has an IC50 (Vero [1]) greater than 100 µM, an IC50 [3, 12] greater than 100 µM and an EC50 ([4]; Human immunodeficiency virus 1) of 3 µM. It also gave an IC50 (CCRF-CEM [6]; Homo sapiens, CCRF-CEM) greater than 100 µM.
Compound `Nc1nc(=O)n([C@@H]2O[C@H](CO)C=C2F)cc1F` (stereo in doubt; 31) has an EC50 [4] greater than 100 µM.
With `Nc1nc(O)c2ncn([C@@H]3O[C@H](CO)C=C3F)c2n1` (stereo in doubt; 19) the IC50 (Vero [1]) was greater than 100 µM, the IC50 [3, 12] was greater than 100 µM and the EC50 [4] was 18.3 µM. It also gave an IC50 (CCRF-CEM [6]; Homo sapiens, CCRF-CEM) greater than 100 µM.

From ChEMBL document CHEMBL1135890, “Structure-activity relationships of 2'-fluoro-2',3'-unsaturated D-nucleosides as anti-HIV-1 agents” (J Med Chem, 2002)
